Data from patent US6274715A, “Tricyclic erythromycin derivatives” (priority 1997, dated 2001).
In brackets after ≈: the same amount, converted by molar mass.

Columns and labels:
Format in all cases: cell-based
[1] = system: STAPHYLOCOCCUS AUREUS ATCC 6538P; assay: In vitro antibacterial activity, MIC, BHI agar dilution; conditions: S. aureus ATCC 6538P, 35-37° C., 20 to 24 hours, unit assumed
STR[…] 508 = assay: as above; conditions: S. agalactiae CMX 508, unit assumed
Summary of the method: (§1)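 MIC was read visually as the lowest drug level with no growth, a slight haze or sparsely isolated colonies relative to a compound-free growth control. Organisms were spotted at 1:100 dilution (1:10 for slow-growing strains) onto Brain Heart Infusion agar containing serial compound dilutions and incubated 20 to 24 hours at 35-37° C.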

EN[…] ATCC 8043 = assay: as above; conditions: E. faecium ATCC 8043, unit assumed
Summary of the method: as §1

M[…] ATCC 4698 = assay: as above; conditions: M. luteus ATCC 4698, unit assumed
Summary of the method: as §1

M[…] ATCC 9341 = assay: as above; conditions: M. luteus ATCC 9341, unit assumed
Summary of the method: as §1

ESCHERICHIA COLI SS = assay: as above; conditions: E. coli SS, unit assumed
[2] = system: PSEUDOMONAS AERUGINOSA K799/WT; assay: as above; conditions: P. aeruginosa K799/WT, unit assumed
[3] = system: STREPTOCOCCUS PYOGENES EES61; assay: as above; conditions: S. pyogenes EES61, unit assumed
ESCHERICHIA COLI DC-2 = assay: as above; conditions: E. coli DC-2, unit assumed
[4] = system: STREPTOCOCCUS BOVIS A-5169; assay: as above; conditions: S. bovis A-5169, unit assumed
[5] = system: STAPHYLOCOCCUS EPIDERMIDIS 3519; conditions: S. epidermidis 3519; BHI agar; unit assumed
[6] = system: STAPHYLOCOCCUS AUREUS CMX 553; assay: In vitro antibacterial activity, MIC, BHI agar dilution; conditions: S. aureus CMX 553, unit assumed
[7] = system: PSEUDOMONAS AERUGINOSA DPHD-2862; assay: as above; conditions: P. aeruginosa DPHD-2862, unit assumed
[8] = system: STAPHYLOCOCCUS AUREUS A5177; assay: as above; conditions: S. aureus A5177, unit assumed
[9] = system: ENTEROBACTER AEROGENES ATCC 13048; assay: as above; conditions: E. aerogenes ATCC 13048, unit assumed
ESCHERICHIA COLI JUHL = conditions: E. coli JUHL; BHI agar; unit assumed
[10] = system: PSEUDOMONAS AERUGINOSA 5007; assay: In vitro antibacterial activity, MIC, BHI agar dilution; conditions: P. aeruginosa 5007, unit assumed
[11] = system: STAPHYLOCOCCUS AUREUS CMX 642A; assay: as above; conditions: S. aureus CMX 642A, unit assumed
[12] = system: PSEUDOMONAS AERUGINOSA BMH10; assay: as above; conditions: P. aeruginosa BMH10, unit assumed
[13] = system: PSEUDOMONAS AERUGINOSA K799/61; assay: as above; conditions: P. aeruginosa K799/61, unit assumed
[14] = system: STAPHYLOCOCCUS AUREUS A-5278; assay: as above; conditions: S. aureus A-5278, unit assumed
CANDIDA ALBICANS CCH 442 = assay: as above; conditions: C. albicans CCH 442, unit assumed
ESCHERICHIA COLI KNK 437 = conditions: E. coli KNK 437; BHI agar; unit assumed
ESCHERICHIA COLI H560 = assay: In vitro antibacterial activity, MIC, BHI agar dilution; conditions: E. coli H560, unit assumed
[15] = system: STAPHYLOCOCCUS AUREUS NCTC10649M; assay: as above; conditions: S. aureus NCTC10649M, unit assumed
[16] = system: PSEUDOMONAS AERUGINOSA DPHD-5263; assay: as above; conditions: P. aeruginosa DPHD-5263, unit assumed
[17] = system: MYCOBACTERIUM SMEGMATIS ATCC 114; assay: as above; conditions: M. smegmatis ATCC 114, unit assumed
[18] = system: STREPTOCOCCUS PYOGENES 930; assay: as above; conditions: S. pyogenes 930, unit assumed
[19] = system: STREPTOCOCCUS PYOGENES PIU 2548; assay: as above; conditions: S. pyogenes PIU 2548, unit assumed
PSEUDOMONAS CEPACIA 296I = assay: as above; conditions: P. cepacia 296I, unit assumed
[20] = system: STAPHYLOCOCCUS AUREUS 1775; assay: as above; conditions: S. aureus 1775, unit assumed
[21] = system: PROVIDENCIA STUARTII CMX 640; conditions: P. stuartii CMX 640; BHI agar; unit assumed
[22] = system: KLEBSIELLA PNEUMONIAE ATCC 8045; assay: In vitro antibacterial activity, MIC, BHI agar dilution; conditions: K. pneumoniae ATCC 8045, unit assumed

Row | SMILES | MIC [1] [µg/mL] | MIC (STR[…] 508) [µg/mL] | MIC (EN[…] ATCC 8043) [µg/mL] | MIC (M[…] ATCC 4698) [µg/mL] | MIC (M[…] ATCC 9341) [µg/mL] | MIC (ESCHERICHIA COLI SS) [µg/mL] | MIC [2] [µg/mL] | MIC [3] [µg/mL] | MIC (ESCHERICHIA COLI DC-2) [µg/mL] | MIC [4] [µg/mL] | MIC [5] [µg/mL] | MIC [6] [µg/mL] | MIC [7] [µg/mL] | MIC [8] [µg/mL] | MIC [9] [µg/mL] | MIC (ESCHERICHIA COLI JUHL) [µg/mL] | MIC [10] [µg/mL] | MIC [11] [µg/mL] | MIC [12] [µg/mL] | MIC [13] [µg/mL] | other results
1 | CC[C@H]1OC(=O)[C@H](C)C(=O)[C@H](C)[C@@H](O[C@@H]2O[C@H](C)C[C@H](N(C)C)[C@H]2O)[C@](C)(OC)C[C@@H](C)C2=NC3CN(C)CC3N3C(=O)O[C@@]1(C)[C@H]3[C@H]2C (stereo partly drawn) [Example 114] | 1.56 (≈ 2.25 µM) | 0.1 (≈ 0.144 µM) | 0.2 (≈ 0.289 µM) | 1.56 (≈ 2.25 µM) | 0.1 (≈ 0.144 µM) | 0.78 (≈ 1.13 µM) | > 100 | 0.05 (≈ 0.0722 µM) | 100 (≈ 144 µM) | 0.02 (≈ 0.0289 µM) | 1.56 (≈ 2.25 µM) | 1.56 (≈ 2.25 µM) | > 100 | 0.78 (≈ 1.13 µM) | 100 (≈ 144 µM) | 100 (≈ 144 µM) | > 100 | 1.56 (≈ 2.25 µM) | > 100 | 6.2 (≈ 8.95 µM) | MIC [14]: > 100 µg/mL; MIC (CANDIDA ALBICANS CCH 442): > 100 µg/mL; MIC (ESCHERICHIA COLI KNK 437): 100 µg/mL (≈ 144 µM); MIC (ESCHERICHIA COLI H560): 50 µg/mL (≈ 72.2 µM); MIC [15]: 1.56 µg/mL (≈ 2.25 µM); MIC [16]: > 100 µg/mL; MIC [17]: 6.2 µg/mL (≈ 8.95 µM); MIC [18]: > 100 µg/mL; MIC [19]: 1.56 µg/mL (≈ 2.25 µM); MIC (PSEUDOMONAS CEPACIA 296I): > 100 µg/mL; MIC [20]: > 100 µg/mL; MIC [21]: > 100 µg/mL; MIC [22]: > 100 µg/mL
2 | CC[C@H]1OC(=O)[C@H](C)C(=O)[C@H](C)[C@@H](O[C@@H]2O[C@H](C)C[C@H](N(C)C)[C@H]2O)[C@](C)(OC)C[C@@H](C)C2=NC3CN(CCc4ccc([N+](=O)[O-])cc4)CC3N3C(=O)O[C@@]1(C)[C@H]3[C@H]2C (stereo partly drawn) [Example 118] | 0.39 (≈ 0.471 µM) | 0.02 (≈ 0.0242 µM) | 0.2 (≈ 0.242 µM) | 0.2 (≈ 0.242 µM) | 0.05 (≈ 0.0604 µM) | 0.78 (≈ 0.942 µM) | > 100 | 0.05 (≈ 0.0604 µM) | > 100 | ≤ 0.005 | 0.39 (≈ 0.471 µM) | 0.39 (≈ 0.471 µM) | > 100 | 0.2 (≈ 0.242 µM) | > 100 | 100 (≈ 121 µM) | > 100 | 0.39 (≈ 0.471 µM) | > 100 | 0.78 (≈ 0.942 µM) | MIC [14]: > 100 µg/mL; MIC (CANDIDA ALBICANS CCH 442): > 100 µg/mL; MIC (ESCHERICHIA COLI KNK 437): > 100 µg/mL; MIC (ESCHERICHIA COLI H560): 100 µg/mL (≈ 121 µM); MIC [15]: 0.39 µg/mL (≈ 0.471 µM); MIC [16]: > 100 µg/mL; MIC [17]: 0.78 µg/mL (≈ 0.942 µM); MIC [18]: > 100 µg/mL; MIC [19]: 0.78 µg/mL (≈ 0.942 µM); MIC (PSEUDOMONAS CEPACIA 296I): > 100 µg/mL; MIC [20]: > 100 µg/mL; MIC [21]: > 100 µg/mL; MIC [22]: > 100 µg/mL
